Assay results: patent US20140093884A1, “Process for Identifying Novel Anti-Inflammatory Molecules with Reduced Direct Transrepression of Genes Induced by Glucocorticoids” (UNIVERSITE DE STRASBOURG, priority 2011, published 2014)

Assays:
[1] = system: GPX3 (glutathione peroxidase 3) gene, (+)GRE; assay: GPX3 transcript levels in mouse ear epidermis after topical treatment (Q-RT-PCR); assay type: in vivo; conditions: WT mice, ears, topical FA, FIG. 10
Description: (§1) Mice. […] Real time PCR. Total RNA was reverse transcribed using hexamers, followed by Q-PCR, as reported (Li et al., 2005). The GC agonist fluocinolone acetonide (FA) was applied to ears of mice concomitantly treated with the “low-calcemic” Vitamin D3 (VitD3) analog MC903 (Calcipotriol; hereafter called MC) to trigger TSLP expression (Li et al., 2006). […] As expected, the expression of the GC-inducible GPX3 (glutathione peroxidase 3) gene which harbours a (+)GRE (Tuckermann et al., 1999) was enhanced by FA (FIG. 10) and inhibited by RU co-treatment, while FA or RU had no effect on MC-dependent expression of the CYP24A1 gene (a VitD3 target) (FIG. 10).

GR binding to IR nGREs = molecular target: T1, GR binding to IR nGREs (Homo sapiens, UniProt P04150); assay: ChIP assay of GR binding to IR0 to IR5 nGRE reporter plasmids in A549 cells; assay type: cell-based; conditions: upon FA addition
T1 construct: GR-expressing cells are in vitro cultured cells, preferably human lung epithelial carcinoma cells A549; endogenous in cells; host or cells: A549 (CCL-185, ATCC)
T1 sequence (P04150 1-777): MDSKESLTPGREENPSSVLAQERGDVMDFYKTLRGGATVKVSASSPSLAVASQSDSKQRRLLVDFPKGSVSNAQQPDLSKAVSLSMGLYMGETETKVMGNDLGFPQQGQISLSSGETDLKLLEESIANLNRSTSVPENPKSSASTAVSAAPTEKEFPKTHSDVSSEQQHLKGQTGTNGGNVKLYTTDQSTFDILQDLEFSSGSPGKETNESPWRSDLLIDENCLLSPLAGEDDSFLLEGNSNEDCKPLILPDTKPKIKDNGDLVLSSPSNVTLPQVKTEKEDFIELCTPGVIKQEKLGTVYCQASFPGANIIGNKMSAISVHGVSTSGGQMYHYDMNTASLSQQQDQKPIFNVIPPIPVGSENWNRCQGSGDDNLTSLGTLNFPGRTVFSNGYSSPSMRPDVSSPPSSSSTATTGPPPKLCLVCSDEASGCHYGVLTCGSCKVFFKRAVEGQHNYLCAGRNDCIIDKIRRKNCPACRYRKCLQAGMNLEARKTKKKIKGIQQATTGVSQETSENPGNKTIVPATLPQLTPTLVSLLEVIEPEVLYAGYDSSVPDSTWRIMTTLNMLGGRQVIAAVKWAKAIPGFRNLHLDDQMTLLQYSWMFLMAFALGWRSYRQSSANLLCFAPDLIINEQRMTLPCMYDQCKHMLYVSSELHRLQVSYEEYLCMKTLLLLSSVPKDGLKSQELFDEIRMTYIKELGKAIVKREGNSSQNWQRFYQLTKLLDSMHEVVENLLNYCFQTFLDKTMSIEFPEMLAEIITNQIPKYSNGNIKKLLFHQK
Method: For ChIP assays to test GR and cofactor binding to the nGRE, +GRE or NFκB region of various luciferase reporter plasmids, ˜60% confluent A549 cells in 100 mm TC dish were transfected with 2 μg of respective plasmids using fugene 6 reagent (Roche) and maintained in charcoal treated FCS containing medium. 44 hours post-transfection, 500 nM FA or Dex or RU24858 and/or 5 μM RU486, 5 ng/ml IL-1β (final conc.) was added to the medium for 2 hours, followed by formaldehyde treatment and processing as described above.
To investigate whether the 1 bp spacer between the inverted repeated motifs of TSLP IR1 nGRE was critical for its repressing function, pGL3-based luciferase plasmids containing the VDRE and TSLP nGRE motifs spaced by 0 to 5 bases (IR0 to IR5 nGREs) were transfected into A549 cells.

TSLP = assay: Nuclear run-on assay of TSLP expression; assay type: in vivo, mouse
Description: Nuclear run-on, EMSA, 3C and Luciferase assays. Nuclear Run-on and EMSA (Carey and Smale., 2001), 3C (Liu et al., 2005) and Luciferase assays (Promega kit) were as described. […] Although the basal TSLP level was similar in vehicle-treated WT and GR^ep−/− mice, FA blocked MC-induced TSLP expression in WT, but not in GR^ep−/− mice (not shown).

[2] = system: CYP24A1 gene (a VitD3 target); assay: CYP24A1 transcript levels in mouse ear epidermis after topical treatment (Q-RT-PCR); assay type: in vivo; conditions: mouse ears, FIG. 10
Description: as §1

[3] = system: VDRE reporter plasmid (IR nGRE element deleted); assay: Luciferase reporter assay in A549 cells, VDRE reporter without IR1 nGRE; assay type: cell-based, human; conditions: FA addition
Method: Luciferase reporter assay. A549 cells seeded on 24-well tissue culture plates overnight at 70% confluency were transfected with 100 ng pCMV β galactosidase, 200 ng pGL3 reporter plasmids and wherever indicated, with 600 ng pSG5 hVDR plasmid (Green et al., 1988) into each well and maintained in medium containing charcoal treated FCS. 24 hours post-transfection, medium was changed and different compounds were added to it for 6 hours. Final concentrations of the compounds are: FA, 500 nM; Dex or RU24858, 300 nM or 500 nM (wherever 300 nM Dex or RU was used, it is indicated in the figure, in all other cases, 500 nM concentration was used); active vitamin D3, 1 μM; IL-1β, 5 ng/ml; BAY 11-7082, 5 μM, JNK inhibitor II, 25 μM. Luciferase assay was carried out as instructed (Promega). Normalized values are reported as the mean±SEM; each value originates from at least three individual transfections with assays performed in duplicate. […]

SMILES: CC1(C)O[C@@H]2C[C@H]3[C@@H]4C[C@H](F)C5=CC(=O)C=C[C@]5(C)[C@@]4(F)[C@@H](O)C[C@]3(C)[C@]2(C(=O)CO)O1 [FA, fluocinolone acetonide]
- expression of GPX3 gene [1]: enhanced
- GR binding to IR0 nGRE (ChIP) (GR binding to IR nGREs): less efficient
- GR binding to IR1 and IR2 nGREs (ChIP) (GR binding to IR nGREs): similarly bound
- GR binding to IR3, IR4 and IR5 nGREs (ChIP) (GR binding to IR nGREs): not detectable
- nature of GR-mediated FA inhibition of TSLP expression (TSLP): transcriptional
- effect on MC-dependent expression of the CYP24A1 gene [2]: no effect
- luciferase expression in absence of IR1 nGRE [3]: did not affect
